For test [1], the system named is HCT116 MTAP null cells. Description: HCT116 proliferation assay, MTAP null cells (CellTiter-Glo, 6 days). Type of test: cell-based. To be noted: read-out: Protif_ HCT116-MTAP null IC50. The method, boiled down:
(§1)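 Compound titrations (top dose 1 or 10 µM, 1:3 dilution, 8 or 9 concentrations) and a DMSO control were applied to cells cultured overnight beforehand in RPMI 1640 with 10% FBS at 37° C, 5% CO2; viability was scored from luminescence.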

The test system of test [2] is HCT116 WT cells. Description: HCT116 proliferation assay, WT cells (CellTiter-Glo, 6 days). Type of test: cell-based. To be noted: read-out: Prolif_HCT116-WT IC50. The method in brief: as §1
Background: ATP-based viability assays read luminescence as a measure of living cells.

The target of test [3] is PRMT5/MEP50 (Homo sapiens, UniProt O14744). The test is described as follows: MTase-Glo methyl transferase assay, Method B (FL-Histone H2A, 1 µM MTA, 1 h pre-incubation). It counts as biochemical. More on the design: purchased Reaction Biology Corp RD-11-292. The note with it: read-out: PRMT5 MTase Glo Ki (nM, Meth. B). How it is done: Method B: The PRMT5 inhibitory activity of test compounds was determined using the MTase-Glo™ assay (Promega), which monitors the product (S-adenosyl homocysteine or SAH) of methyltransferase reactions. The PRMT5 MTase-Glo assay was conducted in a 384-well white ProxiPlate (PerkinElmer) in a total volume of 16 µL. The PRMT5 enzymatic reaction (in 8 µL) contained 4 nM PRMT5/MEP50 (Reaction Biology Corp, catalog no.: RD-11-292), 5 µM S-adenosyl methionine (SAM, Promega), 2.5 µM FL-Histone H2A (BPS Bioscience, catalog no.: 52021), 1 µM 5′-methylthioadenosine (MTA, Sigma) and ½ log serially diluted compounds in a reaction buffer of 50 mM Tris (pH 8.0), 50 mM NaCl, 0.01% Tween 20, 0.01% BSA, and 1 mM TCEP. Test compounds were pre-incubated with PRMT5/MEP50, SAM, and MTA for 1 hour before addition of FL-Histone H2A to initiate the PRMT5 reaction. The reaction was allowed to proceed for 20 hours at room temperature and was then terminated by addition of 1 µL of 9X MTase-Glo™ Reagent (Promega). After a 30-minute incubation at room temperature, 8 µL of MTase-Glo™ Detection Solution (Promega) was added and the plate was incubated at room temperature for an additional 30 minutes. The light signal corresponding to the amount of SAH produced by the PRMT5 reaction was subsequently measured using an Envision multimode reader (PerkinElmer). IC50 and KI values were obtained by analyzing dose-response curves using GraphPad Prism®.
Sequence of PRMT5/MEP50 (O14744 2-637 limits assumed): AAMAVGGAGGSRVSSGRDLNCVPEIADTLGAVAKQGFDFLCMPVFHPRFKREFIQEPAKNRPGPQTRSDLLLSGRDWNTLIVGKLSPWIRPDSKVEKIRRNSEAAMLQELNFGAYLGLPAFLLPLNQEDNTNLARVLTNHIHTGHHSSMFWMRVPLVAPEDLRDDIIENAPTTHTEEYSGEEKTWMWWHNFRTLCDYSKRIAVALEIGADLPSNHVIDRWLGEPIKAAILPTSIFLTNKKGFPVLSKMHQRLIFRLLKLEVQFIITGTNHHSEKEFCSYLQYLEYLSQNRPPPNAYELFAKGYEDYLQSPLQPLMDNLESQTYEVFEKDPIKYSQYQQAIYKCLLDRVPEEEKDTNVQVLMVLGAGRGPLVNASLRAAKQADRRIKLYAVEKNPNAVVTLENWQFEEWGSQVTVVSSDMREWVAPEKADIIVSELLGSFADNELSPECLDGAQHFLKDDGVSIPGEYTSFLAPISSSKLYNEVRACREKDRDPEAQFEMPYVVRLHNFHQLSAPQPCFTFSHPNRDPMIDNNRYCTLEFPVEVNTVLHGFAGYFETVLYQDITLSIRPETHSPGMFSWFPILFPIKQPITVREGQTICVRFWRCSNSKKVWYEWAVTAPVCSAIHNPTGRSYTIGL
Sequence of PRMT5/MEP50 (Q9BQA1 2-342 partner limits assumed): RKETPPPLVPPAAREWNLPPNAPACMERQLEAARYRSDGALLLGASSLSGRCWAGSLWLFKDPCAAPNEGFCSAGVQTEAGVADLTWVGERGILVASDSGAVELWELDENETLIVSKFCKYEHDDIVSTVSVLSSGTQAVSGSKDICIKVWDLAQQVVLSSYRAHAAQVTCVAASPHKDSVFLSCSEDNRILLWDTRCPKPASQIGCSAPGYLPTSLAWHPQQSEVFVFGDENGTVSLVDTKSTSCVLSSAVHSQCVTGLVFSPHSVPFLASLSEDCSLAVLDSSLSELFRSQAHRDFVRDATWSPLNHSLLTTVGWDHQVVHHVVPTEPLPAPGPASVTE

Like-named read-outs stand apart in the source and are kept apart here.

The IC50 is the midpoint of a concentration-inhibition curve. Broadly, the Ki is the equilibrium dissociation constant of an inhibitor or competing ligand from its target. With “2-amino-3-methyl-N-[(4-methylthiazol-5-yl)methyl] -N-[[5-(trifluoromethyl)-2-pyridyl]methyl] quinoline-6-carboxamide [Example 565]”, the IC50 in test [1] turned out to be 94 nM; in test [2], 3490 nM. The Ki in test [3] was 2.77 nM.
Consider `Cc1cc2cc(C(=O)N(Cc3ccc(C(F)(F)F)cn3)CC3CCC3)ccc2nc1N` [Example 562, 2-amino-N-(cyclobutylmethyl)-3-methyl-N-[[5-(trifluoromethyl)-2-pyridyl]methyl]quinoline-6-carboxamide], for which the IC50 in test [1] (HCT116-MTAP null, 144 h) is 455 nM; in test [2] (Homo sapiens, HCT-116, 144 h), greater than 1000 nM. In test [3], the Ki was 3.76 nM.
Taken in the same sequence, the figures for `Cc1cc2cc(C(=O)N(Cc3ccc(CO)c(F)c3)Cc3ccc(C(F)(F)F)cn3)ccc2nc1N` [Example 566, 2-amino-N-[[3-fluoro-4-(hydroxymethyl)phenyl]methyl]-3-methyl-N-[[5-(trifluoromethyl)-2-pyridyl]methyl] quinoline-6-carboxamide] were 277 nM, greater than 10000 nM and 4.58 nM.
Taken in the same sequence, the figures for `Cc1cc2cc(C(=O)N(Cc3ccc(C(F)(F)F)cn3)Cc3c[nH]c4ccccc34)ccc2nc1N` [Example 567, 2-amino-N-(1H-indol-3-ylmethyl)-3-methyl-N-[[5-(trifluoromethyl)-2-pyridyl]methyl] quinoline-6-carboxamide] were 103 nM, greater than 1000 nM and 4.44 nM.
Taken in the same sequence, the figures for `Cc1cc2cc(C(=O)N(Cc3ccc(N)nc3)Cc3ccc(C(F)(F)F)cn3)ccc2nc1N` [Example 568, 2-amino-N-[(6-amino-3-pyridyl)methyl]-3-methyl-N-[[5-(trifluoromethyl)-2-pyridyl]methyl] quinoline-6-carboxamide] were 130 nM, 5550 nM and 2 to 3 nM.
As for `Cc1cc2cc(C(=O)N(Cc3ccc4[nH]c(=O)[nH]c4c3)Cc3ccc(C(F)(F)F)cn3)ccc2nc1N` [Example 570, 2-amino-3-methyl-N-((2-oxo-2,3-dihydro-1H-benzo[d]imidazol-5-yl)methyl)-N-((5-(trifluoromethyl)pyridin-2-yl)methyl)quinoline-6-carboxamide], the IC50 in test [1] (HCT116-MTAP null, 144 h) was 343 nM; in test [2] (Homo sapiens, HCT-116, 144 h) it was greater than 10000 nM. The Ki in test [3] amounted to 2.39 nM.
`Cc1cc2cc(C(=O)N(Cc3ccc(C(F)(F)F)cn3)C3CCc4[nH]cnc4C3)ccc2nc1N` (stereo not shown) [Example 670, 2-amino-3-methyl-N-(4,5,6,7-tetrahydro-1H-benzimidazol-5-yl)-N-[[5-(trifluoromethyl)-2-pyridyl]methyl] quinoline-6-carboxamide]: the IC50 in test [1] (HCT116-MTAP null, 144 h) came out at 860 nM. For the same compound, the inhibition constant Ki in test [3] came out at 5.15 nM.
For `Cc1cc2cc(C(=O)N(Cc3ccc(C(F)(F)F)cn3)C3CCc4cn[nH]c4C3)ccc2nc1N` (stereo not shown) [Example 671, 2-amino-3-methyl-N-(4,5,6,7-tetrahydro-1 H-indazol-6-yl)-N-[[5-(trifluoromethyl)-2-pyridyl]methyl] quinoline-6-carboxamide], the IC50 in test [1] (HCT116-MTAP null, 144 h) was 180 nM. Besides, in test [3], the Ki came to 6.82 nM.
On the same counts, the results for `CCn1ncc2c1CCCC2N(Cc1ccc(C(F)(F)F)cn1)C(=O)c1ccc2nc(N)c(C)cc2c1` (stereo not shown) [Example 673, 2-amino-N-(1-ethy1-4,5,6,7-tetrahydroindazol-4-yl)-3-methyl-N-[[5-(trifluoromethyl)-2-pyridyl]methyl] quinoline-6-carboxamide] are 95 nM and 5.32 nM.
Taken in the same sequence, the figures for `Cc1cc2cc(C(=O)N(Cc3ccc(C(F)(F)F)cn3)C3Cc4ccccc4C3O)ccc2nc1N` (stereo not shown) [Example 674, 2-amino-N-(1-hydroxyindan-2-yl)-3-methyl-N-[[5-(trifluoromethyl)-2-pyridyl]methyl] quinoline-6-carboxamide] were 510 nM and 15.3 nM.
Taken in the same sequence, the figures for `Cc1cc2cc(C(=O)N(Cc3ccc(C(F)(F)F)cn3)CC3CCC(O)C3)ccc2nc1N` (stereo not shown) [Example 677, 2-amino-N-[(3-hydroxycyclopentyl)methyl]-3-methyl-N-[[5-(trifluoromethyl)-2-pyridyl]methyl] quinoline-6-carboxamide] were 950 nM and 9.37 nM.
`Cc1cc2cc(C(=O)N(Cc3ccc(C(F)(F)F)cn3)CC3CCCC(O)C3)ccc2nc1N` (stereo not shown) [Example 678, 2-amino-N-[(3-hydroxycyclohexyl)methyl]-3-methyl-N-[[5-(trifluoromethyl)-2-pyridyl]methyl] quinoline-6-carboxamide]: the IC50 in test [1] (HCT116-MTAP null, 144 h) was 500 nM. Moreover, the Ki in test [3] came out at 5.57 nM.
Turning to `CCC(C1CCOCC1)N(Cc1ccc(C(F)(F)F)cn1)C(=O)c1ccc2nc(N)c(C)cc2c1` (stereo not shown) [Example 681, 2-amino-3-methyl-N-(1-tetrahydropyran-4-ylpropyl)-N-[[5-(trifluoromethyl)-2-pyridyl]methyl] quinoline-6-carboxamide], the half-inhibitory concentration (IC50) in test [1] (HCT116-MTAP null, 144 h) was determined as 240 nM. For the same compound, in test [3], the Ki turned out to be 4.87 nM.
As to `Cc1cc2cc(C(=O)N(Cc3ccc(C(F)(F)F)cc3)Cc3c(F)cncc3F)ccc2nc1N` [Example 685, 2-amino-N-[(3,5-difluoro-4-pyridyl)methyl]-3-methyl-N-[[4-(trifluoromethyl)phenyl]methyl] quino line-6-carboxamide], the IC50 in test [1] was 51 nM. Also, the inhibition constant Ki in test [3] stood at 1.22 nM.
In the case of `Cc1cc2cc(C(=O)N(Cc3ccc(C(F)(F)F)cn3)Cc3ccnn3C)ccc2nc1N` [Example 686, 2-amino-3-methyl-N-[(2-methylpyrazol-3-yl)methyl]-N-[[5-(trifluoromethyl)-2-pyridyl]methyl] quinoline-6-carboxamide], in test [1] (HCT116-MTAP null, 144 h), the IC50 came to 590 nM. The Ki in test [3] turned out to be 5.12 nM.
Turning to `Cc1cc2cc(C(=O)N(Cc3ccnc4[nH]ccc34)Cc3ccnn3C)ccc2nc1N` [Example 687, 2-amino-3-methyl-N-[(2-methylpyrazol-3-yl)methy1] -N-(1 H-pyrrolo [2,3-b]pyridin-4-ylmethyl)quinoline-6-carboxamide], the IC50 in test [1] (HCT116-MTAP null, 144 h) was 110 nM. For the same compound, the Ki in test [3] was determined as 1.56 nM.
On to `Cc1cc2cc(C(=O)N(Cc3ccc(O)cc3)Cc3ccnc4[nH]ccc34)ccc2nc1N` [Example 688, 2-amino-N-[(4-hydroxyphenyl)methyl]-3-methyl-N-(1H-pyrrolo[2,3-b]pyridin-4-ylmethyl)quinoline-6-carboxamide], for which, in test [1] (HCT116-MTAP null, 144 h), the IC50 was determined as 240 nM. The Ki in test [3] amounted to 1.41 nM.
For `Cc1cc2cc(C(=O)N(Cc3ccc[nH]3)Cc3ccnc4[nH]ccc34)ccc2nc1N` [Example 689, 2-amino-3-methyl-N-(1H-pyrrolo[2,3-b]pyridin-4-ylmethyl)-N-(1H-pyrrol-2-ylmethyl)quinoline-6-carboxamide], the concentration for half-maximal inhibition (IC50) in test [1] (HCT116-MTAP null, 144 h) was 330 nM. Also, in test [3], the inhibition constant (Ki) stood at 2.94 nM.
On the same counts, the results for `Cc1cc2cc(C(=O)N(Cc3ccccc3O)Cc3ccnc4[nH]ccc34)ccc2nc1N` [Example 690, 2-amino-N-[(2-hydroxyphenyl)methyl]-3-methyl-N-(1H-pyrrolo[2,3-b]pyridin-4-ylmethyl)quinoline-6-carboxamide] are 94 nM and 1.68 nM.
Consider `Cc1cc2cc(C(=O)N(Cc3ccc(N)cn3)Cc3c[nH]c4ccccc34)ccc2nc1N` [Example 691, 2-amino-N-[(5-amino-2-pyridyl)methyl]-N-(1H-indol-3-ylmethyl)-3-methyl-quinoline-6-carboxamide], for which the IC50 in test [1] (HCT116-MTAP null, 144 h) came to 520 nM. Besides, the Ki in test [3] stood at 3.51 nM.
`Cc1cc2cc(C(=O)N(Cc3ccc(C(F)(F)F)cn3)C(C)CC#N)ccc2nc1N` (stereo not shown) [Example 693, 2-amino-N-(2-cyano-1-methyl-ethyl)-3-methyl-N-[[5-(trifluoromethyl)-2-pyridyl]methyl] quinoline-6-carboxamide]: the IC50 in test [1] (HCT116-MTAP null, 144 h) was determined as 97 nM. In addition, the Ki in test [3] came to 6.14 nM.
Taken in the same sequence, the figures for `Cc1cc2cc(C(=O)N(CCC3CC3)Cc3ccc(C(F)(F)F)cn3)ccc2nc1N` [Example 695, 2-amino-N-(2-cyclopropylethyl)-3-methyl-N-[[5-(trifluoromethyl)-2-pyridyl]methyl] quinoline-6-carboxamide] were 760 nM and 6.3 nM.
Taken in the same sequence, the figures for `Cc1cc2cc(C(=O)N(Cc3ccc(C(F)(F)F)cn3)C(C)CC3CC3)ccc2nc1N` (stereo not shown) [Example 696, 2-amino-N-(2-cyclopropyl-1-methylethyl)-3-methyl-N-[[5-(trifluoromethyl)-2-pyridyl]methyl] quinoline-6-carboxamide] were 200 nM and 2.19 nM.
